Source: patent publication US7608623B2, “Hydroxyamidine and hydroxyguanidine compounds as urokinase inhibitors” (Wilex AG, priority 2003, dated 2009)

How the values were obtained:
[1] = system: CA20948 rat pancreatic tumor; test: Pancreatic adenocarcinoma model CA20948; conditions: WX-UK1 0.3 mg/kg intraperitoneal, 3 weeks, vehicle 30.7%
BN472 breast cancer = test: Breast cancer model BN472, tumor growth and metastasizing in rats (WX-671); conditions: WX-UK1 i.p. 1 mg/kg daily, 30 days, BN472 rat mammary tumor model
BN-472 breast cancer = test: Breast cancer model BN-472, tumor growth and metastasis in the rat (WX-683); assay type: in vivo; conditions: BN-472 rat
Excerpt: BN-472 breast cancer fragments of approximately 20 mm in diameter were taken from a female donor animal. The tumor was excised, separated from the adhering connective tissue, rinsed with saline, and resuspended in HAM-F12 cell culture medium (Invitrogen BV, Breda, Netherlands), supplemented with 10% fetal calf serum (Hi Clone, Greiner BV, Alphen a/d Rijn, Netherlands). The tumor cortex was sliced into cubes of about 2 mm side length and implanted orthotopically under the mammary fat pad of the 4th right nipple of 7 to 9-weeks old recipient female BN rats. Of the grafted tumors, over 95% became palpable within 3 days, and metastasis to the lungs were detected within 2 to 4 weeks.
Shortly before starting the WX-683 treatment on day 3 after tumor transplantation, all rats were individually weighed and the size of the individual tumor measured as the product of the two largest perpendicular diameters. They were then assorted into groups consisting of 18 rats. The rats were pre-selected such that all treatment groups had similar average body weights and tumor size distributions at the start of the treatment. Control rats received 800 μl vehicle (0.01 N HCl) p.o. WX-683 was dissolved in vehicle at the appropriate concentrations and administered in a volume of 800 μl at dosages of 0.3 and 3 mg/kg by oral gavage once a day. The duration of WX-683 treatment ranged from 24 to 25 days, depending whether the tumor size exceeded the maximum tolerable burden. At the end of the treatment period, the rats were sacrificed, their tumors harvested, separated from the adhering connective tissue and the total tumor weight of every rat was determined. To assess the number of lung metastases, the lungs were fixed in Bouin's solution for at least 24 h. Subsequently the number of lung metastases were determined by counting the yellowish-white macroscopic foci on the lung surface (FIG. 7). This study was approved by the Independent Institutional Animal Care and Use Committee (DEC-Consult), Rotterdam, Netherlands, permit no: Erasmus MC OZP 136-03-01, issued on 01.03.2003.

[2] = Stability of WX-671 hydrogen sulfate (stirring in water/acetone; storage as solid); assay type: physicochemical
Description: 5 g of hydrogen sulfate were stirred in 25 ml of water/acetone (80/20) for 7 days, filtered and dried at room temperature for 60 h. […] After stirring, no increase in the content of organic contaminations was found (determination by HPLC).
After storage as a solid substance at 90° C. for 1 week, <1.5% organic contaminations were found (determination by HPLC).

[3] = Solubility of WX-671 hydrogen sulfate in water; assay type: physicochemical; conditions: 25° C., calculated for the base
Excerpt: The purity was ≧98% (area % after HPLC).

CCOC(=O)N1CCN(C(=O)[C@H](Cc2cccc(C(=N)N)c2)NS(=O)(=O)c2c(C(C)C)cc(C(C)C)cc2C(C)C)CC1.Cl [WX-UK1]
percentage large mets (>2 mm liver lesions of total liver lesions) [1]: 13.4%
reduction of average tumor weights at the end of the treatment compared to the control (BN472 breast cancer): approx. 5%

CCOC(=O)N1CCN(C(=O)[C@H](Cc2cccc(NC(=N)NO)c2)NS(=O)(=O)c2c(C(C)C)cc(C(C)C)cc2C(C)C)CC1 [WX-683, N-α-(2,4,6-triisopropylphenylsulfonyl)-3-hydroxyguanidino-(L)-phenylalanine-4-ethoxycarbonylpiperazide]
reduction of median number of lung metastases (BN-472 breast cancer; oral 0.3 mg/kg/day): 18%
reduction of median number of lung metastases (BN-472 breast cancer; oral 3 mg/kg/day): 54%
reduction of median primary tumor weight (BN-472 breast cancer; oral, highest dosage used (3 mg/kg/day)): 38%

CCOC(=O)N1CCN(C(=O)[C@H](Cc2cccc(/C(N)=N\O)c2)NS(=O)(=O)c2c(C(C)C)cc(C(C)C)cc2C(C)C)CC1.O=S(=O)(O)O [WX-671 hydrogen sulfate]
increase in content of organic contaminations (HPLC) ([2]; after stirring in water/acetone (80/20) for 7 days): no increase
stability of the salt to dissociation (stoichiometry) ([2]; stirred in water/acetone (80/20) for 7 days): stable to dissociation
organic contaminations (HPLC) ([2]; storage as solid at 90° C. for 1 week): < 1.5%
solubility in water [3]: 1172.5 µg/mL
